Assay results published in patent US9995731B2, “Construction of mitochondrial UQCRB mutant expressing cells and utilization of the cells for UQCRB assay system thereof” (INDUSTRY-ACADEMIC COOPERATION FOUNDATION, YONSEI UNIVERSITY, priority 2014, dated 2018).

Key:
Assay type in all cases: cell-based, human
[1] = test system: UQCRB mutant stable cell line MT1; assay: Cell proliferation assay (MTT colorimetric), UQCRB mutant stable cell line MT1; details: MT1 cells, terpestacin 50 μM, with or without terpestacin for 3 days
Description: (§1) FIG. 4A-4F Pro-angiogenic activity of UQCRB mutant stable cell lines and its regulation by UQCRB inhibitors. (4A) Pro-angiogenic activity of a UQCRB mutant through conditioned media (CM)-induced invasion of HUVECs. (4B) Effect of a UQCRB mutation on cell migration; black lines indicate the edge of the gap. (4C) Optical density levels of the colony formation assay by using UQCRB mutant stable cell lines or controls. (4D, 4E) Growth of the UQCRB mutant stable cell lines regulated by the UQCRB inhibitors terpestacin (T) and A1938 (A). Cells were treated with terpestacin (50 μM) or A1938 (10 μM) in a time-dependent manner. Cell growth was measured by the MTT colorimetric assay. (4F) Suppression of elevated mROS by terpestacin in UQCRB MT1 cells. mROS were measured using MitoSOX™. Terpestacin (20 μM) was applied to UQCRB MT1 cells for 1 h; scale bars indicate 20 μm. […]
(§2) Control and mutant stable cell lines were seeded onto 96-well plates and incubated for 24-72 h. Proliferation of the cells was measured using a 3-(4,5-dimethylthiazol-2-yl)-2,5-diphenyltetrazolium bromide (MTT; Sigma-Aldrich, Saint Louis, Mo.) colorimetric assay.
(§3) Since UQCRB is a molecular target of the natural compound terpestacin [6], we examined the effect of terpestacin on UQCRB mutant stable cell lines. To test whether terpestacin affects MT1 and MT2, cell growth was measured with or without terpestacin for 3 days. […]

Control (HEK293) cells = assay: Cell proliferation assay (MTT colorimetric), control cells; details: terpestacin 50 μM, 3 days
Description: as §1, §2, §3

[2] = test system: UQCRB mutant stable cell line MT2; assay: Cell proliferation assay (MTT colorimetric), UQCRB mutant stable cell line MT2; details: MT2 cells, terpestacin 50 μM, with or without terpestacin for 3 days
Description: as §1, §2, §3

UQCRB MT1 cells = assay: Measurement of mROS levels with MitoSOX in UQCRB MT1 cells; details: terpestacin 20 μM for 1 h
Description: as §1, with “MitoSOX™.” for “MitoSOX™. Terpestacin (20 μM) was applied to UQCRB MT1 cells for 1 h; scale bars indicate 20 μm.”
mROS levels were assessed by the red fluorescence mitochondrial superoxide indicator MitoSOX™ (Invitrogen, Grand Island, N.Y.). […] Results of MitoSOX™ and Hoechst staining were analyzed under a confocal microscope (Zeiss LSM 710; Carl Zeiss Microlmaging, Thornwood, N.Y.), and the fluorescence intensity of MitoSOX™ was measured by ImageJ.
as §3

C/C1=C\C[C@]2(C)C(=O)C(O)=C([C@H](C)CO)[C@H]2C/C=C(\C)[C@@H](O)CC/C(C)=C/CC1 [terpestacin]
effect on proliferation (cell growth, MTT) [1]: remarkably inhibited proliferation
effect on proliferation (cell growth, MTT) (Control (HEK293) cells): did not affect the proliferation
effect on proliferation (cell growth, MTT) [2]: remarkably inhibited proliferation
effect on elevated mROS (MitoSOX fluorescence) (UQCRB MT1 cells): attenuated mROS induction in MT1 to a basal level
